Our source for the EC50 values is patent US12180226B2, “Spirotricycle RIPK1 inhibitors and methods of uses thereof” (Merck Sharp & Dohme LLC, priority 2021, dated 2024).

The structures appear in SMILES notation. Structures can show the parent of a compound that is named as a salt. Where only a bound is given, the exact number is not on record here.

RIPK1 (recombinant GST-RIPK1 kinase domain, residues 1-327), sequence (Q13546 1-327): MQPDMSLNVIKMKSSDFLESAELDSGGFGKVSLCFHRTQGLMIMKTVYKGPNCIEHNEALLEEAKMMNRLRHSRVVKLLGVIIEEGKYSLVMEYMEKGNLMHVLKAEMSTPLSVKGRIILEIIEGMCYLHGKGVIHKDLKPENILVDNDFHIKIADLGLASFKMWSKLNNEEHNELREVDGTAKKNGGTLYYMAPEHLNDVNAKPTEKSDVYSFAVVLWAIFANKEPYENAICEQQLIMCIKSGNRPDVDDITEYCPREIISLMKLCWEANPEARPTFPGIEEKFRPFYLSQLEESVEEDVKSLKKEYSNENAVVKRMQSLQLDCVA

The test has as its target RIPK1 (recombinant GST-RIPK1 kinase domain, residues 1-327) (Homo sapiens (Human), UniProt Q13546). Nature of the test: RIPK1-ADP-Glo Enzymatic Assay. The test is classed as biochemical. The following applies: ADP-Glo; 25 nM GST-RIPK1, 300 μM ATP; assay lower limit ~25 nM; read-out: RIPK1 V0 Ec50. The procedure, abridged: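 Enzyme from baculovirus-infected Sf21 cells, 25 nM final, was pre-incubated 30 min at ambient temperature with compound (ten-point, 1:3 dilution from 100000 nM, 1% DMSO), then reacted 150 min with 300 μM ATP and 3 μM dephosphorylated MBP. ADP was read by luminescence; EC50 from four-parameter fit.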
(ADP-Glo turns the ADP formed in a reaction into a luminescent signal.)
A word on the EC50: it is the concentration at which the effect is half-maximal. Turning to `Cc1ncc([C@@H]2CC[C@H]3OC4(CCN(c5ccnc6c(F)cnn56)CC4F)C(=O)N32)cc1F` (stereo partly drawn) [Example 4.130, (5′S,7a′R)-3-fluoro-5′-(5-fluoro-6-methylpyridin-3-yl)-1-(3-fluoropyrazolo[1,5-a]pyrimidin-7-yl)tetrahydro-3′H-spiro[piperidine-4,2′-pyrrolo[2,1-b] [1,3]oxazol]-3′-one], the EC50 is under 25 nM.
In the case of `CCOC(=O)c1nc(N2CCC3(CC2)O[C@@H]2CC[C@@H](c4cc(F)cc(F)c4)N2C3=O)ncc1F` [Example 4.205, ethyl 2-[(5′S,7a′R)-5′-(3,5-difluorophenyl)-3′-oxotetrahydro-1H,3′H-spiro[piperidine-4,2′-pyrrolo[2,1-b] [1,3]oxazol]-1-yl]-5-fluoropyrimidine-4-carboxylate] it was 63.3 nM; in that of `O=C1N2[C@H](OC13CCN(c1ccnc4ccnn14)CC3)[C@@H](O)C[C@H]2c1ccccc1` [Example 4.251, (5′S,7′S,7a′R)-7′-hydroxy-5′-phenyl-1-(pyrazolo [1,5-a]pyrimidin-7-yl)tetrahydro-3′H-spiro[piperidine-4,2′-pyrrolo[2,1-b] [1,3]oxazol]-3′-one], under 25 nM; in that of `O=C(c1cnc2cnccn12)N1CCC2(CC1)O[C@@H]1CC[C@@H](c3cc(F)cc(F)c3)N1C2=O` [Example 5.67, (5′S,7a′R)-5′-(3,5-difluoro-phenyl)-1-(imidazo[1,2-a]pyrazine-3-carbonyl)-tetrahydro-3′H-spiro [piperidine-4,2′-pyrrolo-[2,1-b]oxazol]-3′-one], 135 nM.
The result for `Cc1nnc(C(=O)N2CCC3(CC2)O[C@@H]2CC[C@@H](c4cc(F)cc(F)c4)N2C3=O)o1` [Example 5.76, (5′S,7a′R)-5′-(3,5-difluoro-phenyl)-1-(5-methyl-1,3,4-oxadiazole-2-carbonyl)-tetrahydro-3′H-spiro[piperi-dine-4,2′-pyrrolo[2,1-b] [1,3]oxazol]-3′-one] reads 924 nM; that for `O=C1N2[C@@H](CC[C@H]2c2ccccc2)OC12CCN(c1ccc(=O)n(CC3CC3)n1)CC2` [Example 11.8, (5′S,7a′R)-1-[1-(cyclopropylmethyl)-6-oxo-1,6-dihydropyridazin-3-yl]-5′-phenyltetrahydro-3′H-spiro[piperidine-4,2′-pyrrolo[2,1-b][1,3]oxazol]-3′-one], 215 nM.
In the case of `N#Cc1cc(N2CCC3(O[C@@H]4CC[C@@H](c5ccccc5)N4C3=O)C(F)C2)ncn1` (single isomer, unassigned) [Example 4.94, 6-((3[R or S],4[S or R], 5′S,7a′R)-3-fluoro-3′-oxo-5′-phenyltetrahydro-3′H-spiro[piperidine-4,2′-pyrrolo[2,1-b]oxazol]-1-yl)pyrimidine-4-carbonitrile] it was 154 nM; in that of `O=C(c1ccccc1Cl)N1CCC2(CC1)O[C@@H]1CC[C@@H](c3cc(F)cc(F)c3)N1C2=O` [Example 6.78, (5′S,7a′R)-1-(2-chloro-benzene-1-carbonyl)-5′-(3,5-difluorophen-yl)tetrahydro-3′H-spiro[piperidine-4,2′-pyrrolo[2,1-b][1,3]-oxazol]-3′-one], 36.9 nM.
In the case of `CC1C[C@@]2(CCN1C(=O)c1ccccc1)O[C@@H]1CC[C@@H](c3cccc(F)c3)N1C2=O` (stereo partly drawn) [Example 6.160, (4R,5′S,7a′R)-1-(benzenecarbonyl)-5′-(3-fluorophenyl)-2-methyltetrahydro-3′H-spiro[piperidine-4,2′-pyrrolo[2,1-b] [1,3]oxazol]-3′-one], the EC50 is under 25 nM.
In the case of `O=C(c1ccccc1)N1CC2(C1)S[C@@H]1CC[C@@H](c3cc(F)cc(F)c3)N1C2=O` [Example 1.25, (5′S,7a′R)-1-benzoyl-5′-(3,5-difluorophenyl)tetrahydro-3′H-spiro[azetidine-3,2′-pyrrolo[2,1-b]thiazol]-3′-one], the EC50 stood at 98.3 nM.
Turning to `N#Cc1ccc(N2CCC3(CC2)O[C@@H]2CC[C@@H](c4cncc(F)c4)N2C3=O)n2nccc12` [Example 14.3, 7-((5′S,7a′R)-5′-(5-fluoropyridin-3-yl)-3′-oxotetrahydro-3′H-spiro[piperidine-4,2′-pyrrolo[2,1-b]oxazol]-1-yl)pyrazolo[1,5-a]pyridine-4-carbonitrile], the EC50 was under 25 nM.
As for `CCc1ccnc(C(=O)N2CCC3(CC2)O[C@@H]2CC[C@@H](c4cc(F)cc(F)c4)N2C3=O)c1` [Example 6.79, (5′S,7a′R)-5′-(3,5-difluorophenyl)-1-(4-ethylpyridine-2-carbonyl)tetrahydro-3′H-spiro[piperidine-4,2′-pyrrolo[2,1-b][1,3]oxazol]-3′-one], the EC50 stood at 38.3 nM.
With `NC(=O)c1nc(N2CCC3(CC2)O[C@@H]2CC[C@@H](c4cc(F)cc(F)c4)N2C3=O)ncc1F` [Example 4.184, 2-[(5′S,7a′R)-5′-(3,5-difluorophenyl)-3′-oxotetrahydro-1H,3′H-spiro[piperidine-4,2′-pyrrolo[2,1-b] [1,3]oxazol]-1-yl]-5-fluoropyrimidine-4-carboxamide], the EC50 is under 25 nM.
As to `O=C1N2[C@@H](CC[C@H]2c2ccccc2)OC12CCN(c1nc3cnccc3o1)CC2` [Example 4.159, (5′S,7a′R)-1-([1,3]oxazolo[4,5-c]pyridin-2-yl)-5′-phenyltetrahydro-3′H-spiro[piperidine-4,2′-pyrrolo[2,1-b] [1,3]oxazol]-3′-one], the EC50 is 62.6 nM.
The result for `O=C1N2[C@@H](CC[C@H]2c2ccccc2)OC12CCN(c1cc(Cl)nc(C3CCCCC3)n1)CC2` [Example 4.34, (5′S,7a′R)-1-(6-chloro-2-cyclohexylpyrimidin-4-yl)-5′-phenyltetrahydro-3′H-spiro[piperidine-4,2′-pyrrolo[2,1-b] [1,3]oxazol]-3′-one] reads 83 nM.
In the case of `C[C@@]12CC[C@@H](c3ccccc3)N1C(=O)C1(CCN(C(=O)c3ccccc3)CC1)O2` [Example 6.98, (5′S,7a′R)-1-(benzene-carbonyl)-7a′-methyl-5′-phenyltetrahydro-3′H-spiro[piperidine-4,2′-pyrrolo[2,1-b] [1,3]oxazol]-3′-one], the EC50 worked out at 523 nM.
Consider `O=C1N2[C@@H](CC[C@H]2c2ccccc2)OC12CCN(c1ncnc3c(I)cnn13)CC2` [Example 4.219, (5′S,7a′R)-1-(8-iodopyrazolo[1,5-a] [1,3,5]triazin-4-yl)-5′-phenyltetrahydro-3′H-spiro[piperidine-4,2′-pyrrolo[2,1-b] [1,3]oxazol]-3′-one], for which the EC50 was under 25 nM.
In the case of `O=C1N2[C@@H](CC[C@H]2c2ccccc2)OC12CCN(c1ccc(C(F)F)c3ncnn13)CC2` [Example 4.269, (5′S,7a′R)-1-[8-(difluoromethyl)[1,2,4]triazolo[1,5-a]pyridin-5-yl]-5′-phenyltetrahydro-3′H-spiro[piperidine-4,2′-pyrrolo[2,1-b] [1,3]oxazol]-3′-one] it was under 25 nM.
The result for `O=C1N2[C@@H](CC[C@H]2c2cc(F)cc(F)c2)OC12CCN(c1ccc(Cl)c3ncnn13)CC2` [Example 15.4, (5′S,7a′R)-1-(8-chloro-[1,2,4]triazolo[1,5-a]pyridin-5-yl)-5′-(3,5-difluorophenyl)tetrahydro-3′H-spiro[piperidine-4,2′-pyrrolo[2,1-b]oxazol]-3′-one, TFA salt] reads under 25 nM.
Turning to `O=C1N2[C@@H](CC[C@H]2c2ccccc2)OC12CCN(c1ncnc3ccnn13)CC2F` (single isomer, unassigned) [Example 4.97, (3[R or S],4[S or R], 5′S,7a′R)-3-fluoro-5′-phenyl-1-(pyrazolo [1,5-a][1,3,5]triazin-4-yl)tetrahydro-3′H-spiro[piperidine-4,2′-pyrrolo[2,1-b]oxazol]-3′-one], the EC50 was under 25 nM.
Take `O=C1N2[C@@H](CC[C@H]2c2ccccc2)OC12CCN(c1cc(-c3ccc(F)cc3)c([N+](=O)[O-])cn1)CC2` [Example 4.208, (5′S,7a′R)-1-[4-(4-fluorophenyl)-5-nitropyridin-2-yl]-5′-phenyltetrahydro-3′H-spiro[piperidine-4,2′-pyrrolo[2,1-b] [1,3]oxazol]-3′-one]: the EC50 was found to be 56 nM.
The result for `O=C(c1nc2ccccc2s1)N1CCC2(CC1)O[C@@H]1CC[C@@H](c3cc(F)cc(F)c3)N1C2=O` [Example 6.28, (5′S,7a′R)-1-(1,3-benzothiazole-2-car-bonyl)-5′-(3,5-difluoro-phenyl)tetrahydro-3′H-spiro[piperidine-4,2′-pyrrolo[2,1-b] [1,3]oxazol]-3′-one] reads 30.2 nM; that for `O=C1N2[C@@H](CC[C@H]2c2cc(F)cc(F)c2)OC12CCN(c1ccc(Cl)c3nccn13)CC2` [Example 13.16, (5′S,7a′R)-1-(8-chloroimidazo[1,2-a]pyridin-5-yl)-5′-(3,5-difluorophenyl)tetrahydro-3′H-spiro[piperidine-4,2′-pyrrolo[2,1-b]oxazol]-3′-one, TFA salt], 32 nM.
For the molecule `O=C(c1ccccc1)N1CCC2(CC1)O[C@@H]1CC[C@@H](c3ccccc3F)N1C2=O` [Example 1.13, (5′S,7a′R)-1-benzoyl-5′-(2-fluorophenyl)tetrahydro-3′H-spiro[piperidine-4,2′-pyrrolo[2,1-b]oxazol]-3′-one], the half-maximal effective concentration (EC50) is under 25 nM.
In the case of `O=C1N2[C@@H](CC[C@H]2c2ccccc2)OC12CCN(c1cccc3ncnn13)CC2` [Example 13.1, (5′S,7a′R)-1-([1,2,4]Triazolo[1,5-a]pyridin-5-yl)-5′-phenyltetrahydro-3′H-spiro[piperidine-4,2′-pyrrolo[2,1-b]oxazol]-3′-one, TFA], the EC50 was found to be 26.8 nM.
The result for `O=C(c1ccc(F)cc1F)N1CCC2(CC1)O[C@@H]1CC[C@@H](c3cccc(F)c3)N1C2=O` [Example 6.114, (5′S,7a′R)-1-(2,4-difluorobenzene-1-carbonyl)-5′-(3-fluoro-phenyl)tetrahydro-3′H-spiro[piperidine-4,2′-pyrrolo[2,1-b] [1,3]oxazol]-3′-one] reads under 25 nM.
